Data from US11505521B2 (Biothea Pharma, Inc., priority 2018, dated 2022).
Where two headings read alike, the source gives them in different places.

Assays:
[1] = water, 25° C.
Experimental: The sample was dissolved and diluted to the volume with water and mixed well. The sample was left in an oven at 25° C., and samples were collected at 0 hours, 24 hours, 48 hours, 72 hours, 96 hours, and 120 hours. The diluent (mobile phase) used for the study was prepared by mixing about 1.36 g of potassium dihydrogen orthophosphate and 1.74 g of dipotassium hydrogen orthophosphate in a 1000 mL volumetric flask, and adjusting the pH to 3.0 with orthophosphoric acid. The appearance and purity of the samples were tested.

[2] = no humidity
Experimental: The samples were prepared in a brown glass bottle with the outer packing being an aluminum foil bag, and the samples were stored between layers of dessicant silica gels. The appearance, residual material, purity, TGA, and DSC were analyzed each month.

[3] = Experimental: The procedure for the various conditions is set forth below.
Standard: 20 mg of sample was weighed and dissolved in a 50 mL volumetric flask, diluted to the required volume with diluents, and mixed well.
Acid Degradation: 20 mg of sample was weighed and placed in a 50 mL volumetric flask. 2 mL of 2.0 mol/L HCl was added to the flask. The flask was placed in a water bath at 40° C. for 7 days.
Alkaline Degradation: 20 mg of sample was weighed and placed in a 50 mL volumetric flask. 2 mL of 0.05 mol/L NaOH was added to the flask. The flask was stored at room temperature for 24 hours.
Oxidation: 20 mg of sample was weighed and placed in a 50 mL volumetric flask. 2 mL of 10% H2O2 was added to the flask. The flask was placed in a water bath at 40° C. for 44 hours.
Thermal Degradation (solution, 80° C.): 20 mg of sample was weighed and dissolved in a 50 mL volumetric flask, diluted to the required volume with diluents, and mixed well. The flask was placed in a water bath at 80° C. for 46 hours.
Thermal Degradation (solid, 80° C.): 120 mg of sample was placed in an oven at 80° C. for 7 days.
The appearance and purity of the samples were test.

[4] = 20 mg in 20 mL water, 25° C.
Experimental: The tests were conducted using Sartorius balances (Model SQP) and a pH meter (Brand: INESA, Model No. PHS-3E). 20 mg of the sample was weighed and transferred into a 20 mL volumetric flask with the remainder of the volume comprising water. The solution was mixed. The pH meter was calibrated with pH 4.0 and pH 6.8 standard buffer solutions at 25° C.

[5] = Acid Degradation: 2.0 mol/L HCl, 40° C., 7 days
[6] = Alkaline Degradation: 0.05 mol/L NaOH, room temperature, 24 hours
[7] = Oxidation: 10% H2O2, 40° C., 44 hours
[8] = Thermal Degradation (solid): 80° C., 7 days
[9] = Thermal Degradation (solution): 80° C., 46 hours

CNC[C@H](O)c1ccc(O)c(O)c1 [epinephrine malonate]
Appearance ([1]; 0 hours): Colorless liquid
Purity ([1]; 0 hours): 99.97%
Appearance ([1]; 24 hours): Colorless liquid
Purity ([1]; 24 hours): 99.79%
Appearance ([1]; 48 hours): Colorless liquid
Purity ([1]; 48 hours): 99.63%
Appearance ([1]; 72 hours): Colorless liquid
Purity ([1]; 72 hours): 99.51%
Appearance ([1]; 96 hours): Colorless liquid
Purity ([1]; 96 hours): 99.42%
Appearance ([1]; 120 hours): Colorless liquid
Purity ([1]; 120 hours): 99.34%
Appearance ([2]; 30° C., month 0): Off-white
DSC Offset ([2]; 30° C., month 0): Offset: 104.25 °C
DSC Onset ([2]; 30° C., month 0): Onset: 98.8 °C
Purity ([2]; 30° C., month 0): 99.96%
TGA ([2]; 30° C., month 0): 0.32%
Appearance ([2]; 30° C., month 1): Off-white
DSC Offset ([2]; 30° C., month 1): Offset: 103.99 °C
DSC Onset ([2]; 30° C., month 1): Onset: 98.80 °C
Purity ([2]; 30° C., month 1): 99.96%
Residual Material (%) ([2]; 30° C., month 1): 100.31%
TGA ([2]; 30° C., month 1): 0.60%
Appearance ([2]; 30° C., month 2): Off-white
DSC Offset ([2]; 30° C., month 2): Offset: 104.47 °C
DSC Onset ([2]; 30° C., month 2): Onset: 99.27 °C
Purity ([2]; 30° C., month 2): 99.96%
Residual Material (%) ([2]; 30° C., month 2): 99.42%
TGA ([2]; 30° C., month 2): 0.19%
Appearance ([2]; 30° C., month 3): Off-white
DSC Offset ([2]; 30° C., month 3): Offset: 104.23 °C
DSC Onset ([2]; 30° C., month 3): Onset: 98.72 °C
Purity ([2]; 30° C., month 3): 99.96%
Residual Material (%) ([2]; 30° C., month 3): 99.44%
TGA ([2]; 30° C., month 3): 0.90%
Appearance ([2]; 30° C., month 4): Off-white
DSC Offset ([2]; 30° C., month 4): Offset: 103.62 °C
DSC Onset ([2]; 30° C., month 4): Onset: 99.12 °C
Purity ([2]; 30° C., month 4): 99.73%
Residual Material (%) ([2]; 30° C., month 4): 99.31%
TGA ([2]; 30° C., month 4): 0.69%
Appearance ([2]; 30° C., month 5): Off-white
DSC Offset ([2]; 30° C., month 5): Offset: 103.92 °C
DSC Onset ([2]; 30° C., month 5): Onset: 98.71 °C
Purity ([2]; 30° C., month 5): 99.96%
Residual Material (%) ([2]; 30° C., month 5): 100.22%
TGA ([2]; 30° C., month 5): 0.51%
Appearance ([2]; 40° C., month 0): Off-white
DSC Offset ([2]; 40° C., month 0): Offset: 104.25 °C
DSC Onset ([2]; 40° C., month 0): Onset: 98.8 °C
Purity ([2]; 40° C., month 0): 99.96%
TGA ([2]; 40° C., month 0): 0.32%
Appearance ([2]; 40° C., month 1): Off-white
DSC Offset ([2]; 40° C., month 1): Offset: 104.41 °C
DSC Onset ([2]; 40° C., month 1): Onset: 98.89 °C
Purity ([2]; 40° C., month 1): 99.97%
Residual Material (%) ([2]; 40° C., month 1): 99.59%
TGA ([2]; 40° C., month 1): 0.16%
Appearance ([2]; 40° C., month 2): Off-white
DSC Offset ([2]; 40° C., month 2): Offset: 104.05 °C
DSC Onset ([2]; 40° C., month 2): Onset: 98.78 °C
Purity ([2]; 40° C., month 2): 99.96%
Residual Material (%) ([2]; 40° C., month 2): 100.11%
TGA ([2]; 40° C., month 2): 0.13%
Appearance ([2]; 40° C., month 3): Off-white
DSC Offset ([2]; 40° C., month 3): Offset: 103.33 °C
DSC Onset ([2]; 40° C., month 3): Onset: 98.69 °C
Purity ([2]; 40° C., month 3): 99.96%
Residual Material (%) ([2]; 40° C., month 3): 98.97%
TGA ([2]; 40° C., month 3): 0.51%
Appearance ([2]; 40° C., month 5): Off-white
DSC Offset ([2]; 40° C., month 5): Offset: 103.83 °C
DSC Onset ([2]; 40° C., month 5): Onset: 98.49 °C
Purity ([2]; 40° C., month 5): 99.96%
Residual Material (%) ([2]; 40° C., month 5): 99.68%
TGA ([2]; 40° C., month 5): 0.46%
Appearance [3, 5]: Colorless liquid
Purity [3, 5]: 91.96%
Appearance [3, 6]: Brown liquid
Purity [3, 6]: 98.68%
Appearance [3, 7]: Colorless liquid
Purity [3, 7]: 97.04%
Appearance ([3]; Standard (no degradation)): Off-white powder
Purity ([3]; Standard (no degradation)): 99.89%
Appearance [3, 8]: Off-white powder
Purity [3, 8]: 99.10%
Appearance [3, 9]: Colorless liquid
Purity [3, 9]: 96.04%

epinephrine maleate
pH [4]: 4.48
